Results: US20240173440A1, “HIGH PURITY COPPER RADIOPHARMACEUTICAL COMPOSITIONS AND DIAGNOSTIC AND THERAPEUTIC USES THEREOF” (Nuclidium AG, priority 2022, published 2024)

What was measured:
[1] = Remaining PET activity in the mouse body 4h p.i.; format: in vivo; conditions: mice
Protocol: PET/CT Imaging: Mice bearing FAP-positive and FAP-negative xenografts were injected intravenously with ^61Cu-labeled radioligands of the present disclosure or ^61Cu-NODAGA-FAPI-46 (100 μL/[…]/6-12 MBq). […] The mice were euthanized by CO2 at 4 hours p.i., and static PET scans were acquired for 30 min.
Remaining PET activity in the mouse body 4h p.i. prior to the 4h scan was determined (Table 36).

[2] = test system: HT-1080.hFAP cells; assay: In vitro cellular uptake (cell surface and internalized fractions) in HT-1080.hFAP cells; format: cell-based, human
Protocol: (§1) The cellular uptake was studied in vitro using intact cells seeded in 6-well plates overnight. On the day of the experiment, the cells were washed and incubated with each of the exemplified [^61Cu]Cu-radiotracer at different time points, either alone or in the presence of a blocking agent to distinguish between specific and non-specific uptake. At each investigated time point, the medium containing the unbound (free) radiotracer was removed, followed by two washing steps with ice-cold phosphate-buffered saline. The cells were then treated 2×5 min with ice-cold glycine solution (0.05 M, pH 2.8) to detach the cell surface-bound radiotracer (acid released). Afterwards, the cells containing the internalized radiotracer were detached with 1 M NaOH at 37° C. and collected for measurement. The amount of specific cell surface-bound and internalized radiotracer is expressed as percentage of the total applied activity, after subtracting the non-specific values.
as §1, with “^61Cu-labeled conjugate” for “of the exemplified [^61Cu]Cu-radiotracer”
The cells were then preconditioned in 360 μL of assay medium (MEM medium without supplements) at 37° C. for 60 min. 40 μL of a 2 nM solution of ^61Cu-labeled radioligand was added and the cells were incubated at 37° C. The cellular uptake was interrupted at different time points (15 min, 1 hour and 4 hours), by washing twice with ice-cold PBS. Cell surface-bound radioligand was obtained by washing cells twice with ice-cold glycine buffer (pH 2.8), followed by a collection of the internalized fraction with 1 M NaOH. The activity in each fraction was measured in a γ-counter (Cobra II).

[3] = target: hFAP (Homo sapiens (Human), UniProt Q12884); assay: Saturation binding on isolated HEK-293.hFAP cell membranes; design: Bmax: unit not given here; conditions: 37° C.
Protocol: The cells were homogenized using Ultra-Turrax, and the homogenized suspension was centrifuged at 500×g for 10 min at 4° C. The supernatant was collected in centrifuge tubes (Beckman Coulter Inc., Brea, CA, USA). This procedure was then repeated 5 times. The collected supernatant was centrifuged in an ultra-centrifuge (Beckman) at 4° C. for 55 min at 49,000×g. Then, the pellet was re-suspended in 10 mM ice-cold HEPES buffer (pH 7.5), aliquoted, and stored at −80° C. The protein concentration of those membrane suspensions was determined by the Bradford method, BSA as the standard.
Each assay tube contained 170 μL of binding buffer (20 mM HEPES, pH 7.4, containing 4 mM μgCl2, 0.2% BSA, 20 μg/L bacitracin, 20 μg/L PMSF and 200,000 KIU/L aprotinin). The incubation was initiated by adding 30 μL of radioligand solution at 10 times the final concentration and 100 μL of cell membrane suspension to yield 10 μg of protein per well. For the determination of the non-specific binding, 140 μL of the above binding buffer was added along with 30 μL of FAPI-46 to obtain (0.1 mM). Bound fractions were plotted versus the corresponding radioligand concentration at equilibrium. The dissociation constant (KD) and maximal binding capacity (Bmax) values were calculated using GraphPad Software Inc., Prism 7, San Diego, CA, USA (Table 33 and FIG. 21).

[4] = test system: HT-1080.hFAP and HT-1080.wt xenografts; assay: Quantitative biodistribution in HT-1080.hFAP and HT-1080.wt xenografted mice; format: in vivo; conditions: for Biodistribution HT-1080.wt: FAP-negative tumor; for Biodistribution HT-1080.hFAP: FAP-positive tumor
Protocol: The tumors were allowed to grow to an average volume of 100-200 mm3.
Biodistribution Studies: The xenografted mice were randomized (n=5 per group) and injected intravenously via the tail vein with the ^61Cu-labeled radioligands (100 μL, […], 0.8-1MBq). Mice were euthanized 1h and 4h pi. by CO2 asphyxiation. Organs of interest and blood were collected, rinsed of excess blood, blotted dry, weighed, and counted in a […]. The samples were counted against a suitably diluted aliquot of the injected solution as the standard and the results are expressed as the percentage of the injected activity per gram of tissue (0% I.A./g)+SD.

[5] = 15 min, HT-1080.hFAP cells, specific uptake (minus HT-1080.wt)
[6] = 240 min, HT-1080.hFAP cells, specific uptake (minus HT-1080.wt)
[7] = 1 h p.i., HT-1080.hFAP and HT-1080.wt xenografts
[8] = 4 h p.i., HT-1080.hFAP and HT-1080.wt xenografts
[9] = HT-1080.hFAP and HT-1080.wt xenografts

hFAP, sequence (Q12884 whole entry): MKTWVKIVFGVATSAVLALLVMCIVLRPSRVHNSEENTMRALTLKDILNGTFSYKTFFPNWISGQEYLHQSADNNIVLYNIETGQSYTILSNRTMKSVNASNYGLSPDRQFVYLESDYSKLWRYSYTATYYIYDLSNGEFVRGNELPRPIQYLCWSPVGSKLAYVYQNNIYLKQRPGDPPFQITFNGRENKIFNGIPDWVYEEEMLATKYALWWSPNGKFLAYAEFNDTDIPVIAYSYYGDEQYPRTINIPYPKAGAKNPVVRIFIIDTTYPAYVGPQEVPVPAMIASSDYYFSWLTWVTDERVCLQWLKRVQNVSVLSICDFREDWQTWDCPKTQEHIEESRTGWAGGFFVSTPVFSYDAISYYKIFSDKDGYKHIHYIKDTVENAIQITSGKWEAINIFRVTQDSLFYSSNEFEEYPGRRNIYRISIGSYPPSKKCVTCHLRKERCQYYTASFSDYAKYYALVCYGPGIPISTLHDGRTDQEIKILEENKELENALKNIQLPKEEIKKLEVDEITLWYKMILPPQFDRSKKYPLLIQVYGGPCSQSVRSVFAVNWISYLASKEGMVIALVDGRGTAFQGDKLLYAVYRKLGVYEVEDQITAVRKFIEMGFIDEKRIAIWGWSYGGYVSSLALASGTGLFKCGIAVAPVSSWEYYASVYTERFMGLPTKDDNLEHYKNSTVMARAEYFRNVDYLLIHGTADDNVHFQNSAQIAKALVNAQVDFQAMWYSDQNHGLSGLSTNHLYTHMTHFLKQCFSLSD

Compound: CN(C(=O)CCC(=O)N1CCN(C(=O)CC[C@H](C(=O)O)N2CCN3CCN(CC2)CC(=O)[O][61Cu][O]C(=O)C3)CC1)c1ccc2nccc(C(=O)NCC(=O)N3CC(F)(F)C[C@H]3C#N)c2c1 [[^61Cu]Cu-NODAGA-F4]
- retention in the body (remaining PET activity) [1]: lowest value
- Cell surface fraction [2, 5]: 1.0 ± 0.7 % of the applied activity
- Cell surface fraction [2, 6]: 0.9 ± 0.6 % of the applied activity
- Cell surface fraction ([2]; Time Point 15 min, 0.2 nM): 1.0 ± 0.7 percentage of the total applied activity
- Cell surface fraction ([2]; Time Point 240 min, 0.2 nM): 0.9 ± 0.6 percentage of the total applied activity
- Bmax [3]: 9.1-9.8
- Biodistribution Heart ([4]; 1 hour p.i.): 0.6 ± 0.0 % I.A./g
- Biodistribution Intestine ([4]; 1 hour p.i.): 0.5 ± 0.2 % I.A./g
- Biodistribution Liver ([4]; 1 hour p.i.): 0.6 ± 0.1 % I.A./g
- Biodistribution Lung ([4]; 1 hour p.i.): 0.9 ± 0.1 % I.A./g
- Biodistribution Muscle ([4]; 1 hour p.i.): 0.8 ± 0.2 % I.A./g
- Biodistribution Spleen ([4]; 1 hour p.i.): 0.4 ± 0.0 % I.A./g
- Biodistribution Stomach ([4]; 1 hour p.i.): 0.5 ± 0.0 % I.A./g
- Biodistribution Adrenal [4, 7]: 1.1 ± 0.2 % IA/g
- Biodistribution Blood [4, 7]: 1.4 ± 0.1 % IA/g
- Biodistribution Femur [4, 7]: 3.2 ± 0.8 % IA/g
- Biodistribution HT1080.hFAP (FAP-positive tumor) [4, 7]: 7.4 ± 1.6 % IA/g
- Biodistribution HT1080.wt (FAP-negative tumor) [4, 7]: 1.7 ± 0.2 % IA/g
- Biodistribution Heart [4, 7]: 0.6 ± 0.0 % IA/g
- Biodistribution Intestine [4, 7]: 0.5 ± 0.2 % IA/g
- Biodistribution Kidney [4, 7]: 1.8 ± 0.2 % IA/g
- Biodistribution Liver [4, 7]: 0.6 ± 0.1 % IA/g
- Biodistribution Lung [4, 7]: 0.9 ± 0.1 % IA/g
- Biodistribution Muscle [4, 7]: 0.8 ± 0.2 % IA/g
- Biodistribution Pancreas [4, 7]: 1.1 ± 0.1 % IA/g
- Biodistribution Spleen [4, 7]: 0.4 ± 0.0 % IA/g
- Biodistribution Stomach [4, 7]: 0.5 ± 0.0 % IA/g
- Biodistribution Adrenal ([4]; 4 hours p.i.): 0.5 ± 0.1 % I.A./g
- Biodistribution Blood ([4]; 4 hours p.i.): 0.4 ± 0.1 % I.A./g
- Biodistribution Heart ([4]; 4 hours p.i.): 0.2 ± 0.0 % I.A./g
- Biodistribution Intestine ([4]; 4 hours p.i.): 0.3 ± 0.1 % I.A./g
- Biodistribution Liver ([4]; 4 hours p.i.): 0.4 ± 0.0 % I.A./g
- Biodistribution Lung ([4]; 4 hours p.i.): 0.3 ± 0.0 % I.A./g
- Biodistribution Muscle ([4]; 4 hours p.i.): 0.4 ± 0.1 % I.A./g
- Biodistribution Pancreas ([4]; 4 hours p.i.): 0.4 ± 0.1 % I.A./g
- Biodistribution Spleen ([4]; 4 hours p.i.): 0.2 ± 0.0 % I.A./g
- Biodistribution Stomach ([4]; 4 hours p.i.): 0.2 ± 0.0 % I.A./g
- Biodistribution Adrenal [4, 8]: 0.5 ± 0.1 % IA/g
- Biodistribution Blood [4, 8]: 0.4 ± 0.1 % IA/g
- Biodistribution Femur [4, 8]: 1.2 ± 0.1 % IA/g
- Biodistribution HT1080.hFAP (FAP-positive tumor) [4, 8]: 3.0 ± 0.8 % IA/g
- Biodistribution HT1080.wt (FAP-negative tumor) [4, 8]: 0.6 ± 0.0 % IA/g
- Biodistribution Heart [4, 8]: 0.2 ± 0.0 % IA/g
- Biodistribution Intestine [4, 8]: 0.3 ± 0.1 % IA/g
- Biodistribution Kidney [4, 8]: 1.1 ± 0.1 % IA/g
- Biodistribution Liver [4, 8]: 0.4 ± 0.0 % IA/g
- Biodistribution Lung [4, 8]: 0.3 ± 0.0 % IA/g
- Biodistribution Muscle [4, 8]: 0.4 ± 0.1 % IA/g
- Biodistribution Pancreas [4, 8]: 0.4 ± 0.1 % IA/g
- Biodistribution Spleen [4, 8]: 0.2 ± 0.0 % IA/g
- Biodistribution Stomach [4, 8]: 0.2 ± 0.0 % IA/g
- Biodistribution HT-1080.wt ([4]; 1 hour p.i.): 1.7 ± 0.2 % I.A./g
- Biodistribution HT-1080.wt ([4]; 4 hours p.i.): 0.6 ± 0.0 % I.A./g
- Biodistribution HT-1080.hFAP ([4]; 1 hour p.i.): 7.4 ± 1.6 % I.A./g
- Biodistribution HT-1080.hFAP ([4]; 4 hours p.i.): 3.0 ± 0.8 % I.A./g
- accumulation in tumor and target-positive tissues [4, 9]: high accumulation in FAP-positive (HT-1080.hFAP) tumor and murine-FAP-positive tissues

Compound: CN(CCCN1CCN(C(=O)CCC(C(=O)O)N2CCN3CCN(CC2)CC(=O)[O][61Cu][O]C(=O)C3)CC1)c1ccc2nccc(C(=O)NCC(=O)N3CC(F)(F)C[C@H]3C#N)c2c1 (stereo partly shown) [[^61Cu]Cu-NODAGA-FAPI-46]
- retention in the body (remaining PET activity) [1]: highest retention in the body
- Cell surface fraction [2, 5]: 0.9 ± 0.3 % of the applied activity
- Internalized fraction [2, 6]: 50.0 ± 6.0 % of the applied activity
- Cell surface fraction ([2]; Time Point 15 min, 0.2 nM): 0.9 ± 0.3 percentage of the total applied activity
- Internalized fraction ([2]; Time Point 240 min, 0.2 nM): 50.0 ± 6.0 percentage of the total applied activity
- Bmax [3]: 9.0-10.3
- Biodistribution Adrenal [4, 7]: 2.2 ± 0.1 % IA/g
- Biodistribution Blood [4, 7]: 2.6 ± 0.1 % IA/g
- Biodistribution Femur [4, 7]: 6.5 ± 0.4 % IA/g
- Biodistribution HT1080.hFAP (FAP-positive tumor) [4, 7]: 8.4 ± 1.4 % IA/g
- Biodistribution HT1080.wt (FAP-negative tumor) [4, 7]: 3.1 ± 0.0 % IA/g
- Biodistribution Heart [4, 7]: 1.1 ± 0.0 % IA/g
- Biodistribution Intestine [4, 7]: 1.0 ± 0.4 % IA/g
- Biodistribution Kidney [4, 7]: 1.5 ± 0.1 % IA/g
- Biodistribution Liver [4, 7]: 0.9 ± 0.0 % IA/g
- Biodistribution Lung [4, 7]: 1.5 ± 0. % IA/g
- Biodistribution Muscle [4, 7]: 1.7 ± 0.1 % IA/g
- Biodistribution Pancreas [4, 7]: 2.0 ± 0.2 % IA/g
- Biodistribution Spleen [4, 7]: 0.7 ± 0.1 % IA/g
- Biodistribution Stomach [4, 7]: 1.0 ± 0.1 % IA/g
- Biodistribution Adrenal [4, 8]: 2.0 ± 0.2 % IA/g
- Biodistribution Blood [4, 8]: 1.5 ± 0.1 % IA/g
- Biodistribution Femur [4, 8]: 4.6 ± 0.4 % IA/g
- Biodistribution HT1080.hFAP (FAP-positive tumor) [4, 8]: 7.7 ± 0.4 % IA/g
- Biodistribution HT1080.wt (FAP-negative tumor) [4, 8]: 2.5 ± 0.2 % IA/g
- Biodistribution Heart [4, 8]: 0.7 ± 0.1 % IA/g
- Biodistribution Intestine [4, 8]: 0.6 ± 0.2 % IA/g
- Biodistribution Kidney [4, 8]: 1.0 ± 0.1 % IA/g
- Biodistribution Liver [4, 8]: 0.8 ± 0.2 % IA/g
- Biodistribution Lung [4, 8]: 1.0 ± 0.1 % IA/g
- Biodistribution Muscle [4, 8]: 1.4 ± 0.2 % IA/g
- Biodistribution Pancreas [4, 8]: 1.6 ± 0.1 % IA/g
- Biodistribution Spleen [4, 8]: 0.5 ± 0.1 % IA/g
- Biodistribution Stomach [4, 8]: 0.6 ± 0.1 % IA/g
- accumulation in tumor and target-positive tissues [4, 9]: high accumulation in FAP-positive (HT-1080.hFAP) tumor and murine-FAP-positive tissues
